Columns and labels:
[1] = Biopharmaceutics Classification System class; type: physicochemical
[2] = Preclinical exposure of epimer Compound B vs Compound A; type: in vivo; conditions: preclinical data; epimer formed by interconversion of Compound A
ER = target: T1, ER (Homo sapiens, UniProt P03372); experiment: ER degradation; conditions: evidence in words
T1 construct: PROTAC recruits cereblon (CRBN) E3 ligase
T1 sequence (P03372 1-595): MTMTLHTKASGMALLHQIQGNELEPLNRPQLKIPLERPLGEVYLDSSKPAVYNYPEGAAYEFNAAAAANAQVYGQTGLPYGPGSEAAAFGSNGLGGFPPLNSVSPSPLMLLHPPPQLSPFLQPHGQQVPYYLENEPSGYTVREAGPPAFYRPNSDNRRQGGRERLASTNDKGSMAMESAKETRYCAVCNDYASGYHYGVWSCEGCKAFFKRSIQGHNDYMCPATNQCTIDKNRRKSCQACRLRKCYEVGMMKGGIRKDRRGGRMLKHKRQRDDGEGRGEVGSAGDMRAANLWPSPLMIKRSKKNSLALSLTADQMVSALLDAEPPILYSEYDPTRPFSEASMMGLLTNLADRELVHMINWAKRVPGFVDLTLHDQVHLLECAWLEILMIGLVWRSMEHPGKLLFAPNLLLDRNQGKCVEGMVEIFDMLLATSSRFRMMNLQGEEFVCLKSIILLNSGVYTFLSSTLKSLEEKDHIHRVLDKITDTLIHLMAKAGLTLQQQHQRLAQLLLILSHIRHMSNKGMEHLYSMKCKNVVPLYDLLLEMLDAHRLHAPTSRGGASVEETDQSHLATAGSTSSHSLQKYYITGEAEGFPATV

| Structure (SMILES) | permeability (in words, BCS) [1] | solubility (in words, BCS) [1] | exposure of Compound B compared to Compound A [2] | ER degradation (ER) |
| --- | --- | --- | --- | --- |
| O=C1CC[C@H](N2Cc3cc(N4CCN(CC5CCN(c6ccc([C@@H]7c8ccc(O)cc8CC[C@@H]7c7ccccc7)cc6)CC5)CC4)ccc3C2=O)C(=O)N1 [Compound A, (S)-3-(5-(4-((1-(4-((1R,2S)-6-hydroxy-2-phenyl-1,2,3,4-tetrahydronaphthalen-1-yl)phenyl)piperidin-4-yl)methyl)piperazin-1-yl)-1-oxoisoindolin-2-yl)piperidine-2,6-dione] | low permeability | low solubility | – | – |
| O=C1CC[C@@H](N2Cc3cc(N4CCN(CC5CCN(c6ccc([C@@H]7c8ccc(O)cc8CC[C@@H]7c7ccccc7)cc6)CC5)CC4)ccc3C2=O)C(=O)N1 [Compound B] | – | – | < 26% | does not degrade the ER |

Reference: US20260335451A1, “SOLID ORAL DOSAGE FORMS OF ESTROGEN RECEPTOR DEGRADERS” (Arvinas Operations, Inc., priority 2023, published 2026)
